This passage reports Ki results from US20080146559A1, “4,5,6,7-Tetrahydro-Thieno [2,3-C] Pyridine Derivatives” (priority 2006, published 2008).

The structures appear in SMILES notation.

For this experiment, the target named is T1, human H3R (Homo sapiens, UniProt Q9Y5N1).
T1 construct: expressed in transfected cells; host or cells: CHO cells (membranes)
T1 sequence (Q9Y5N1 whole entry): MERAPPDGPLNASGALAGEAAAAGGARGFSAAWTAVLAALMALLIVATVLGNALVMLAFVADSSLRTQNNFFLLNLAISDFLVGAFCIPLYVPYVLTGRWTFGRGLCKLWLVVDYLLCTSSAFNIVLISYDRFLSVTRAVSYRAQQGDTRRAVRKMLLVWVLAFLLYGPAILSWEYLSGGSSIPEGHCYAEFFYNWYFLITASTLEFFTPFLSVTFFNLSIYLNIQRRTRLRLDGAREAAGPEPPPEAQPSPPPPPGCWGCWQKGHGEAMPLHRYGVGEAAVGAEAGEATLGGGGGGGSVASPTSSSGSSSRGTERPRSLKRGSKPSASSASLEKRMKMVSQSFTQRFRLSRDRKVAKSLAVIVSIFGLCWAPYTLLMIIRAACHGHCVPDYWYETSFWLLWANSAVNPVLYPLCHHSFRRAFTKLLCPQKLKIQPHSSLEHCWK
Nature of the experiment: Binding assay with 3H-(R)α-methylhistamine (competition binding). The note with it: membrane of the human H3R-CHO cell line, 3H(R)α-methylhistamine 1 nM, Ki calculated from IC50 by Cheng-Prusoff. Here is the method:
Binding assay with ^3H—(R)α-methylhistamine
Saturation binding experiments were performed using HR3-CHO membranes prepared as described in Takahashi, K, Tokita, S., Kotani, H. (2003) J. Pharmacol. Exp. Therapeutics 307, 213-218.
An appropriate amount of membrane (60 to 80 μg protein/well) was incubated with increasing concentrations of ^3H(R)α-Methylhistamine di-hydrochloride (0.10 to 10 nM). Non specific binding was determined using a 200 fold excess of cold (R)α-Methylhistamine dihydrobromide (500 nM final concentration). The incubation was carried out at room temperature (in deep-well plates shaking for three hours). The final volume in each well was 250 μl. The incubation was followed by rapid filtration on GF/B filters (pre-soaked with 100 μl of 0.5% PEI in Tris 50 mM shaking at 200 rpm for two hours). The filtration was made using a cell-harvester and the filter plates were then washed five times with ice cold washing buffer containing 0.5 M NaCl. After harvesting, the plates were dried at 55° C. for 60 min, then we added scintillation fluid (Microscint 40, 40 microl in each well) and the amount of radioactivity on the filter was determined in Packard top-counter after shaking the plates for two hours at 200 rpm at room temperature.
Binding Buffer: 50 mM Tris-HCl pH 7.4 and 5 mM MgCl2×6H2O pH 7.4. Washing Buffer: 50 mM Tris-HCl pH 7.4 and 5 mM MgCl2×6H2O and 0.5 M NaCl pH 7.4. Indirect measurement of affinity of H3R inverse agonists: twelve increasing concentrations (ranging from 10 μM to 0.3 nM) of the selected compounds were always tested in competition binding experiments using membrane of the human H3R—CHO cell line. An appropriate amount of protein, e.g. approximately 500 cpm binding of RAMH at Kd, were incubated for 1 hour at room temperature in 250 μl final volume in 96-well plates in presence of ^3H(R)α-methylhistamine (1 nM final concentration=Kd). Non-specific binding was determined using a 200 fold excess of cold (R)α-methylhistamine dihydrobromide.
All compounds were tested at a single concentration in duplicate. […] The concentration at which 50% inhibition of the radioligand ^3H(R)α-methylhistamine is obtained (the IC50) is determined from the linear regression of a plot of the logarithm of the concentration versus percent inhibition measured for the different concentrations. Ki's were calculated from IC50 based on Cheng-Prusoff equation (Cheng, Y, Prusoff, W H (1973) Biochem Pharmacol 22, 3099-3108): Ki=IC50/[1+D/Kd] wherein D is the concentration of the radioligand and Kd is the binding constant for the radioligand binding to the receptor under the conditions used in the competition experiment.
On to `O=S(=O)(c1ccccc1)N1CCc2cc(OCCCN3CCCC3)sc2C1` [Example 32, 6-benzenesulfonyl-2-(3-pyrrolidin-1-yl-propoxy)-4,5,6,7-tetrahydro-thieno[2,3-c]pyridine], for which the Ki was 33.6 nM. The figure for `Cc1ccc(S(=O)(=O)N2CCc3cc(OC4CCN(C(C)C)C4)sc3C2)cc1` (stereo not drawn) [Example 94, 2-(1-isopropyl-pyrrolidin-3-yloxy)-6-(toluene-4-sulfonyl)-4,5,6,7-tetrahydro-thieno[2,3-c]pyridine] is 64.3 nM. The figure for `CC(C)(C)CC(=O)N1CCc2cc(OCCCN3CCCC3)sc2C1` [Example 20, 3,3-dimethyl-1-[2-(3-pyrrolidin-1-yl-propoxy)-4,7-dihydro-5H-thieno[2,3-c]pyridin-6-yl]-butan-1-one] is 40.9 nM; for `CC(C)CN1CCC(Oc2cc3c(s2)CN(C(=O)CC(C)(C)C)CC3)CC1` [Example 44, 1-[2-(1-isobutyl-piperidin-4-yloxy)-4,7-dihydro-5H-thieno[2,3-c]pyridin-6-yl]-3,3-dimethyl-butan-1-one] it is 41.7 nM; for `CC(C)CC(=O)N1CCc2cc(OC3CCN(C(C)C)CC3)sc2C1` [Example 64, 1-[2-(1-isopropyl-piperidin-4-yloxy)-4,7-dihydro-5H-thieno[2,3-c]pyridin-6-yl]-3-methyl-butan-1-one] it is 13.1 nM. The same measure for `O=C(c1cccc(F)c1)N1CCc2cc(OCCCN3CCCCC3)sc2C1` [Example 10, (3-fluoro-phenyl)-[2-(3-piperidin-1-yl-propoxy)-4,7-dihydro-5H-thieno[2,3-c]pyridin-6-yl]-methanone]: 31.3 nM.
